The target of test [1] is T1, ΔF508 CFTR (Homo sapiens, UniProt P13569, DEL508-508). The test is described as follows: Potentiator activity, YFP halide (iodide) quenching assay in FRT cells expressing ΔF508 CFTR, 27° C. pre-incubation. It is filed as cell-based. On the set-up: expressed in transfected cells; host or cells: Fischer rat thyroid (FRT) cells; Potentiator activity compared to the DMSO control (no EC50 obtained): scale not given here. The conditions noted are these: for pEC50: FRT cells ΔF508 CFTR/YFP, 24 hours at 27° C., compound with forskolin 30 min. The protocol:
Fisher rat thyroid (FRT) cells stably expressing ΔF508 CFTR and a halide-sensitive variant of yellow fluorescent protein (YFP) were seeded into microtiter plates and allowed to grow for 24 hours at 37° C. and 5% CO2, as described above. The medium was replaced with fresh medium and the cells were incubated for a further 24 hours at 27° C. and 5% CO2 to increase the level of mutant CFTR at the cell surface.
Compounds in DMSO solution were pre-diluted into phosphate-buffered saline solution (PBS) containing forskolin. Activity of CFTR was assayed by removing the medium, washing the cell monolayer with PBS, and then applying the compounds diluted in PBS containing forskolin. After 30 min of incubation at 37° C., the plates were placed in a fluorescence plate reader equipped with a reagent injector. After measuring an initial fluorescence value, iodide-containing buffer was injected and the decrease in fluorescence was followed at excitation and emission wavelengths of 485 and 530 nm, respectively.
Potentiator activity was calculated as follows. Normalized endpoint fluorescence was calculated by dividing the endpoint fluorescence after iodide injection by the initial fluorescence reading and multiplication by 100. Potentiator EC50 values were calculated by the same method as corrector EC50 values.

Test [2] has as its target T1, ΔF508 CFTR. As to the kind of experiment: Corrector activity, YFP halide (iodide) quenching assay in FRT cells expressing ΔF508 CFTR. It is filed as cell-based. Particulars: FRT cells ΔF508 CFTR/YFP, 24 hours with compound at 37° C., forskolin and genistein; read-out: Corrector EC50. Also on record: expressed in transfected cells; host or cells: Fischer rat thyroid (FRT) cells. The method, then: Fisher rat thyroid (FRT) cells stably expressing ΔF508 CFTR and a halide-sensitive variant of yellow fluorescent protein (YFP) were seeded into microtiter plates and allowed to grow for 24 hours at 37° C. and 5% CO2. See Pedemonte et al., J. Clin. Invest. […] Compounds in dimethylsulfoxide (DMSO) solution were pre-diluted into cell culture medium, the medium was removed from cells, and then fresh medium containing the compounds was applied. The cells were incubated for a further 24 hours at 37° C. and 5% CO2.
Activity of CFTR was assayed by removing the medium, washing the cell monolayer with phosphate-buffered saline solution (PBS), and then applying PBS containing forskolin and genistein. After 30 min incubation at 37° C., the plates were placed in a fluorescence plate reader equipped with a reagent injector.
Corrector activity was calculated as follows. Normalized endpoint fluorescence was calculated by dividing the endpoint fluorescence after iodide injection by the initial fluorescence reading and multiplication by 100. Corrector EC50 values were calculated from the activity vs. concentration data using a 4-parameter log fit. The bottom of the curve was constrained to zero activity (DMSO control) while the slope, EC50, and top of the curve were fitted to the data. The EC50 was determined as the concentration that corresponds to the inflection point of the fitted curve.

pEC50: −log10 of the molar value.

T1 sequence (P13569 with tags, fused parts or gaps DEL508-508): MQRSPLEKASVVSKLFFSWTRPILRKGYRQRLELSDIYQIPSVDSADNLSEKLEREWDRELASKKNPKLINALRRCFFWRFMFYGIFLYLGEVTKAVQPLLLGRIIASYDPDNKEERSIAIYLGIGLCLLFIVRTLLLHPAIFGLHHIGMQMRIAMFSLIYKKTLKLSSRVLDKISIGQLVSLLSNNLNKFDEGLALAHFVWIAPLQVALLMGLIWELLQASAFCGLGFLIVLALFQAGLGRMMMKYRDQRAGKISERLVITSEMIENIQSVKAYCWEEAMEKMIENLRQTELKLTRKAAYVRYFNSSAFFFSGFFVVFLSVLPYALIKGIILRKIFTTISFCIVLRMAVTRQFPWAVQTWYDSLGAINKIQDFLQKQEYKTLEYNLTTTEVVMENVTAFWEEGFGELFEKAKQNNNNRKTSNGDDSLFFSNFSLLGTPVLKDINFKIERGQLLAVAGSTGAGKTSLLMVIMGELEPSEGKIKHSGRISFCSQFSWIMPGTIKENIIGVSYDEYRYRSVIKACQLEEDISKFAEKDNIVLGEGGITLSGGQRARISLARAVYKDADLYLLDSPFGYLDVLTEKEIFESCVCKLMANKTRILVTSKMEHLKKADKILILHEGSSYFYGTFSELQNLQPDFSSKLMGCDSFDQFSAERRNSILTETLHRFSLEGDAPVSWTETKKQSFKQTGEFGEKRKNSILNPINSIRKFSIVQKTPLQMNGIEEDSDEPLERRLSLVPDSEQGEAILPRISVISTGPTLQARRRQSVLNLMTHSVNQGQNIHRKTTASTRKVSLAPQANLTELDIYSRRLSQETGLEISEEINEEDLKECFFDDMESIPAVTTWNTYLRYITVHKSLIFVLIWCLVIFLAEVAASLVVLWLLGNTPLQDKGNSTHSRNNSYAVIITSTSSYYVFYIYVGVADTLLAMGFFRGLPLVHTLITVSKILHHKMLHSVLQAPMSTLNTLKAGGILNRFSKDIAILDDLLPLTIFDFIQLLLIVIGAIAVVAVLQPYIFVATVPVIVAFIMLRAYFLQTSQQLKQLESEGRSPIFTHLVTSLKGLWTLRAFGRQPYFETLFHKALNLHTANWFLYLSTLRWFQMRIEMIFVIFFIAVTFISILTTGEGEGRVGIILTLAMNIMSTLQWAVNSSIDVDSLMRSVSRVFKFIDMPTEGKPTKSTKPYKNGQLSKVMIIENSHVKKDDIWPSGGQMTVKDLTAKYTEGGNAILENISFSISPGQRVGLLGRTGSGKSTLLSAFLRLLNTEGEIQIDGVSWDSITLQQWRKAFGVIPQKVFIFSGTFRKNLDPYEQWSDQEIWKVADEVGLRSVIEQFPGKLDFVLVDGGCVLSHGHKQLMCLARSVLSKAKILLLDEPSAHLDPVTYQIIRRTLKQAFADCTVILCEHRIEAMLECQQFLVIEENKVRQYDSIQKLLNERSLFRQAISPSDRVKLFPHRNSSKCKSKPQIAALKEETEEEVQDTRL

For the compound `Nc1ncnc2c1c(Cc1cccc3ccccc13)nn2C1CNC1` [compound 413], the pEC50 on ΔF508 CFTR [1] and on ΔF508 CFTR [2] was less than 4.82 in each case.
Turning to `COC(=O)Nc1ncnc2c1c(-c1ccc(Cl)cc1)nn2C(C)(C)C` [Compound No. 294, [1-tert-Butyl-3-(4-chloro-phenyl)-1H-pyrazolo[3,4-d]pyrimidin-4-yl]-carbamic acid methyl ester], the pEC50 at ΔF508 CFTR [1] and at ΔF508 CFTR [2] was less than 4.82 throughout.
For the compound `CC(C)(C)n1nc(Oc2ccc(F)cc2)c2c(N)ncnc21` [compound 196], the pEC50 at ΔF508 CFTR [1] was greater than 5.70; at ΔF508 CFTR [2] it was 5.00 to 5.30.
The like results for `Nc1ncnc2c1c(Oc1cccc(Cl)c1)nn2-c1ncccn1` [compound 287] were, in that order, less than 4.82 and less than 4.82.
With `CCn1nc(Sc2cccc(Cl)c2)c2c(N)ncnc21` [compound 226], the pEC50 on ΔF508 CFTR [1] was greater than 5.70; on ΔF508 CFTR [2] it was less than 4.82.
For `CC(C)(C)n1nc(-c2ccc(Cl)cc2)c2c(NS(C)(=O)=O)ncnc21` [Compound No. 274, N-[1-tert-Butyl-3-(4-chloro-phenyl)-1H-pyrazolo[3,4-d]pyrimidin-4-yl]-methanesulfonamide], the negative logarithm of the EC50 (pEC50) at ΔF508 CFTR [1] is less than 4.82; on ΔF508 CFTR [2] it was 5.30 to 5.70.
The like results for `Nc1ncnc2c1c(-c1ccc(Cl)cc1)cn2C1CCC1` [compound 257] were, in that order, greater than 5.70 and greater than 5.70.
Consider `CCn1nc(Sc2cccc(C(F)(F)F)c2)c2c(N)ncnc21` [compound 323], for which the figures for the negative-log EC50 (pEC50) at ΔF508 CFTR [1] and on ΔF508 CFTR [2] were greater than 5.70 and less than 4.82, respectively.
In the case of `CC(C)n1cc(-c2ccc(Cl)cc2)c2c(N)ncnc21` [compound 315], the negative logarithm of the EC50 (pEC50) on ΔF508 CFTR [1] is 5.30 to 5.70; on ΔF508 CFTR [2], greater than 5.70.
As to `CC(C)(C)n1nc(Sc2ccccn2)c2c(N)ncnc21` [compound 245], the negative-log EC50 (pEC50) at ΔF508 CFTR [1] is 5.00 to 5.30; on ΔF508 CFTR [2], less than 4.82.
Consider `CN(c1ccccc1)c1nn(C2CCC2)c2ncnc(N)c12` [compound 314], for which the negative-log EC50 (pEC50) at ΔF508 CFTR [1] and at ΔF508 CFTR [2] was less than 4.82 throughout.
Turning to `CCn1nc([S+]([O-])c2ccccn2)c2c(N)ncnc21` (stereo not drawn) [compound 353], the negative-log EC50 (pEC50) on ΔF508 CFTR [1] is 5.00 to 5.30; at ΔF508 CFTR [2] it was less than 4.82.
For the compound `Cc1ccc(C(=O)Nc2ncnc3c2c(-c2ccc(C)cc2)nn3C(C)(C)C)cc1` [compound 95], the negative-log EC50 (pEC50) on ΔF508 CFTR [1] is 5.30 to 5.70; at ΔF508 CFTR [2], less than 4.82.
In the case of `CC(C)(C)n1nc(Oc2cccc3ccccc23)c2c(N)ncnc21` [compound 198, 1-tert-Butyl-3-(naphthalen-1-yloxy)-1H-pyrazolo[3,4-d]pyrimidin-4-ylamine], on ΔF508 CFTR [1] (at 12 μm), the “Potentiator activity compared to the DMSO control (no EC50 obtained)” value is recorded as “# (at 12 μm)”. Besides, the negative logarithm of the EC50 (pEC50) at ΔF508 CFTR [2] was less than 4.82.
As for `CC(C)(C)n1nc(-c2ccc(O)cc2Cl)c2c(N)ncnc21` [compound 276], the pEC50 on ΔF508 CFTR [1] was greater than 5.70; at ΔF508 CFTR [2] it was 5.00 to 5.30.
For the compound `CCn1nc([S+]([O-])c2cccc(F)c2)c2c(N)ncnc21` (stereo not drawn) [compound 238], the pEC50 on ΔF508 CFTR [1] and on ΔF508 CFTR [2] was less than 4.82 each time.
Turning to `CC(C)(C)n1nc(Oc2ccc(C(=O)c3ccccc3)cc2)c2c(N)ncnc21` [compound 237], the negative-log EC50 (pEC50) on ΔF508 CFTR [1] and on ΔF508 CFTR [2] was less than 4.82 throughout.
Turning to `CCn1nc(Nc2ccc3c(c2)OC(F)(F)O3)c2c(N)ncnc21` [compound 313], the values for the pEC50 on ΔF508 CFTR [1] and at ΔF508 CFTR [2] were 5.30 to 5.70 and less than 4.82, respectively.
For `COc1nn(C(C)(C)C)c2ncnc(N)c12` [compound 312, 1-tert-butyl-3-methoxy-1H-pyrazolo[3,4-d]pyrimidin-4-ylamine], in that order: 5.00 to 5.30 and less than 4.82.
As to `CC(C)(C)n1nc(-c2ccc3c(c2)OCO3)c2c(N)ncnc21` [compound 131], the figures for the pEC50 at ΔF508 CFTR [1] and at ΔF508 CFTR [2] were 5.30 to 5.70 and less than 4.82, respectively.
As for `CC(C)(C)n1nc(Oc2cccc(F)c2)c2c(N)ncnc21` [compound 200], the negative logarithm of the EC50 (pEC50) is greater than 5.70 on ΔF508 CFTR [1] and less than 4.82 at ΔF508 CFTR [2].
For `CCOC(=O)N1CCC(n2nc(-c3ccc(Cl)cc3)c3c(N)ncnc32)CC1` [compound 303], in that order: less than 4.82 and less than 4.82.
Take `CC(C)(C)n1nc(Oc2ccccc2F)c2c(N)ncnc21` [compound 197]: the pEC50 was greater than 5.70 on ΔF508 CFTR [1] and 5.00 to 5.30 on ΔF508 CFTR [2].
For `CC(C)(C)n1nc(Oc2ncccn2)c2c(N)ncnc21` [compound 326], in that order: less than 4.82 and less than 4.82.
In the case of `CC(C)(C)n1nc(Oc2cccnc2)c2c(N)ncnc21` [compound 183], the negative-log EC50 (pEC50) at ΔF508 CFTR [1] and at ΔF508 CFTR [2] was less than 4.82 each time.
With `CCn1nc([S+]([O-])c2cccc(C)c2)c2c(N)ncnc21` (stereo not drawn) [compound 224], the pEC50 at ΔF508 CFTR [1] and at ΔF508 CFTR [2] was less than 4.82 in each case.
`CC(C)(C)n1nc(Oc2ccc(C#N)cc2)c2c(N)ncnc21` [compound 205]: the results for the pEC50 at ΔF508 CFTR [1] and at ΔF508 CFTR [2] were greater than 5.70 and less than 4.82, respectively.
On to `CC(C)(C)Cn1cc(-c2ccc(Cl)cc2)c2c(N)ncnc21` [compound 316], for which the negative-log EC50 (pEC50) on ΔF508 CFTR [1] was 5.30 to 5.70; on ΔF508 CFTR [2], 5.00 to 5.30.
Regarding `CC(C)(C)n1nc(Oc2cccc(-c3ccccc3)c2)c2c(N)ncnc21` [compound 190], the values for the pEC50 at ΔF508 CFTR [1] and on ΔF508 CFTR [2] were less than 4.82 and 5.00 to 5.30, respectively.
`CCC(=O)Nc1ncnc2c1c(-c1ccc(Cl)cc1)nn2C(C)(C)C` [compound 240]: the negative logarithm of the EC50 (pEC50) at ΔF508 CFTR [1] was greater than 5.70; on ΔF508 CFTR [2], 5.00 to 5.30.
On to `Cc1cc(C)cc(Oc2nn(C(C)(C)C)c3ncnc(N)c23)c1` [compound 180], for which the figures for the negative-log EC50 (pEC50) at ΔF508 CFTR [1] and on ΔF508 CFTR [2] were greater than 5.70 and 5.00 to 5.30, respectively.
Regarding `CC(C)(C)n1nc(Sc2ccccc2)c2c(N)ncnc21` [compound 172], the results for the negative-log EC50 (pEC50) at ΔF508 CFTR [1] and on ΔF508 CFTR [2] were greater than 5.70 and less than 4.82, respectively.
For `CC(C)(C)n1nc(Sc2cccc(C(F)(F)F)c2)c2c(N)ncnc21` [compound 244, 1-tert-Butyl-3-(3-trifluoromethyl-phenylsulfanyl)-1H-pyrazolo[3,4-d]pyrimidin-4-ylamine], the negative-log EC50 (pEC50) was 5.00 to 5.30 on ΔF508 CFTR [1] and less than 4.82 on ΔF508 CFTR [2].
Turning to `CC(=O)N1CC(n2nc(Sc3cccc(Cl)c3)c3c(N)ncnc32)C1` [compound 344], the pEC50 at ΔF508 CFTR [1] and at ΔF508 CFTR [2] was less than 4.82 in each case.
`CC(C)C(=O)Nc1ncnc2c1c(-c1ccc(Cl)cc1)nn2C(C)(C)C` [compound 265]: the pEC50 is greater than 5.70 on ΔF508 CFTR [1] and 5.00 to 5.30 at ΔF508 CFTR [2].
The like results for `CCn1nc(Sc2ccc(F)cc2)c2c(N)ncnc21` [compound 208] were, in that order, greater than 5.70 and less than 4.82.
For `CC(C)(C)n1nc(Oc2cccc(C#N)c2)c2c(N)ncnc21` [compound 201], in that order: 5.00 to 5.30 and 5.00 to 5.30.
For `CN1CC[C@@H](n2nc(-c3ccc(Cl)cc3)c3c(N)ncnc32)C1` [Compound No. 356, 3-(4-Chloro-phenyl)-1-(1-methyl-pyrrolidin-3-yl)-1H-pyrazolo[3,4-d]pyrimidin-4-ylamine], in that order: less than 4.82 and greater than 5.70.
Consider `CC(C)(C)n1nc(Oc2ccc(OCc3ccccc3)cc2)c2c(N)ncnc21` [compound 233], for which the negative-log EC50 (pEC50) on ΔF508 CFTR [1] and on ΔF508 CFTR [2] was less than 4.82 each time.
For `CCC(=O)Nc1ncnc2c1c(-c1ccc(Cl)cc1)cn2CC` [compound 271], the pEC50 is 5.00 to 5.30 on ΔF508 CFTR [1] and greater than 5.70 at ΔF508 CFTR [2].
For `CCn1nc([S+]([O-])c2ccc(C)cc2)c2c(N)ncnc21` (stereo not drawn) [compound 291], the pEC50 at ΔF508 CFTR [1] and at ΔF508 CFTR [2] was less than 4.82 each time.
As to `CC(=O)Nc1ncnc2c1c(-c1ccc(F)cc1)nn2C(C)(C)C` [compound 118, N-[1-tert-Butyl-3-(4-fluoro-phenyl)-1H-pyrazolo[3,4-d]pyrimidin-4-yl]-acetamide], the pEC50 on ΔF508 CFTR [1] and on ΔF508 CFTR [2] was less than 4.82 throughout.
On to `CC(C)C(=O)Nc1ncnc2c1c(-c1ccc(Cl)cc1)cn2C(C)C` [compound 352], for which the pEC50 on ΔF508 CFTR [1] and at ΔF508 CFTR [2] was greater than 5.70 in each case.
In the case of `CC(C)(C)OC(=O)n1nc(Sc2cccc(Cl)c2)c2c(N)ncnc21` [compound 343], the negative-log EC50 (pEC50) on ΔF508 CFTR [1] was greater than 5.70; on ΔF508 CFTR [2], less than 4.82.
As for `CCn1nc(Sc2cccc(Br)c2)c2c(N)ncnc21` [compound 236], the results for the pEC50 on ΔF508 CFTR [1] and at ΔF508 CFTR [2] were greater than 5.70 and less than 4.82, respectively.

The term pEC50 denotes the negative decadic logarithm of the EC50, by convention in mol/L.

The values are drawn from patent publication US20100331297A1, “MODULATION OF PROTEIN TRAFFICKING” (FOLDRX PHARMACEUTICALS, INC., priority 2007, published 2010).
